Data on 15 molecules can be found in PubChem BioAssay AID256 (DTP/NCI, 2004).

The test system of the assay is CD2F1 mice, L1210 leukemia ip, survival T/C. Kind of assay: NCI In Vivo Anticancer Drug Screen. Data for tumor model L1210 Leukemia (intraperitoneal) in CD2F1 (CDF1) mice. To be noted: higher = longer survival. In outline: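 Compound-dosed mice with transplantable tumor versus matched vehicle controls; endpoint ratio T/C reported.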
The mark [1] stands for this setting: endpoint: mean survival time, dose: 100.0 mg/kg/injection, schedule: Q01DX001 (ip), vehicle: saline with Tween-80.
Setting [2] is: endpoint: mean survival time, dose: 400.0 mg/kg/injection, schedule: Q01DX001 (ip), vehicle: saline with Tween-80.
[3] abbreviates: endpoint: mean survival time, dose: 100.0 mg/kg/injection, schedule: Q04DX003 (ip), vehicle: saline.
The mark [4] stands for this setting: endpoint: mean survival time, dose: 200.0 mg/kg/injection, schedule: Q04DX003 (ip), vehicle: saline.
[5] abbreviates: endpoint: mean survival time, dose: 200.0 mg/kg/injection, schedule: Q01DX001 (ip), vehicle: saline with Tween-80.

SMILES strings stand for the structures. Values joined by “and” are separate entries in the source; they are usually repeats but may differ in a detail not shown here. Equal entries are not always repeated. Toxic doses and inconclusive results are not listed.

With `Cc1ccc(NC(=O)NCCCCCCNC(=O)Nc2ccc(C)c(Cl)c2)cc1Cl`, the T/C runs as follows: under setting [1], 89 % of control; under setting [2], 91 % of control.

With `O=c1[nH]c(NCCCCc2ccccc2)c(Br)c(=O)[nH]1`, the T/C under setting [1] was 91 % of control.

As for `[Cl][Pt+2][Cl].[NH-]CC1(C[NH-])CCC1`, the T/C by setting is: (endpoint: mean survival time, dose: 3.12 mg/kg/injection, schedule: Q04DX003 (ip), vehicle: saline) 111 % of control; (endpoint: mean survival time, dose: 12.5 mg/kg/injection, schedule: Q04DX003 (ip), vehicle: saline) 229 % of control; (endpoint: mean survival time, dose: 25.0 mg/kg/injection, schedule: Q04DX003 (ip), vehicle: saline) 272 % of control; (endpoint: mean survival time, dose: 50.0 mg/kg/injection, schedule: Q04DX003 (ip), vehicle: saline) 174 % of control and 231 % of control; under setting [3], 164 % of control and 335 % of control; under setting [4], 90 % of control. In addition, the T/C (endpoint: median survival time, dose: 0.1 mg/kg/injection, schedule: Q01DX009 (ip), vehicle: Klucel (hydroxypropylcellulose) (HPC)) was 111 % of control; the T/C (endpoint: median survival time, dose: 0.2 mg/kg/injection, schedule: Q01DX009 (ip), vehicle: Klucel (hydroxypropylcellulose) (HPC)) is 111 % of control; the T/C (endpoint: median survival time, dose: 1.5 mg/kg/injection, schedule: Q01DX009 (ip), vehicle: carboxymethylcellulose (CMC)) is 239 % of control; the T/C (endpoint: median survival time, dose: 3.0 mg/kg/injection, schedule: Q01DX009 (ip), vehicle: carboxymethylcellulose (CMC)) was 281 % of control; the T/C (endpoint: median survival time, dose: 3.12 mg/kg/injection, schedule: Q01DX009 (ip), vehicle: Klucel (hydroxypropylcellulose) (HPC)) was 222 % of control and 320 % of control; the T/C (endpoint: median survival time, dose: 3.13 mg/kg/injection, schedule: Q01DX009 (ip), vehicle: Klucel (hydroxypropylcellulose) (HPC)) was 169 % of control and 206 % of control. Further, the T/C was 171 % of control (endpoint: median survival time, dose: 6.0 mg/kg/injection, schedule: Q01DX001 (ip), vehicle: carboxymethylcellulose (CMC)); 186 % of control (endpoint: median survival time, dose: 8.0 mg/kg/injection, schedule: Q01DX001 (ip), vehicle: other); 176 % of control (endpoint: median survival time, dose: 9.0 mg/kg/injection, schedule: Q01DX001 (ip), vehicle: carboxymethylcellulose (CMC)); 114 % of control (endpoint: median survival time, dose: 9.0 mg/kg/injection, schedule: Q01DX009 (ip), vehicle: carboxymethylcellulose (CMC)); 203 % of control (endpoint: median survival time, dose: 12.0 mg/kg/injection, schedule: Q01DX001 (ip), vehicle: carboxymethylcellulose (CMC)); 212 % of control (endpoint: median survival time, dose: 12.0 mg/kg/injection, schedule: Q01DX001 (ip), vehicle: other). Moreover, the T/C was 203 % of control (endpoint: median survival time, dose: 15.0 mg/kg/injection, schedule: Q01DX001 (ip), vehicle: carboxymethylcellulose (CMC)); 242 % of control (endpoint: median survival time, dose: 16.0 mg/kg/injection, schedule: Q01DX001 (ip), vehicle: other); 103 % of control (endpoint: median survival time, dose: 20.0 mg/kg/injection, schedule: Q01DX001 (ip), vehicle: other).

In the case of `CSc1ncc(C(=O)O)c(SC(C)C)n1`, the T/C is, setting by setting: (endpoint: mean survival time, dose: 50.0 mg/kg/injection, schedule: Q04DX003 (ip), vehicle: saline with Tween-80) 91 % of control; under setting [1], 102 % of control; (endpoint: mean survival time, dose: 100.0 mg/kg/injection, schedule: Q04DX003 (ip), vehicle: saline with Tween-80) 93 % of control; under setting [5], 92 % of control; (endpoint: mean survival time, dose: 200.0 mg/kg/injection, schedule: Q04DX003 (ip), vehicle: saline with Tween-80) 87 % of control.

Take `c1ccc(-c2nn(-c3ccccc3)[n+](-c3ccccc3)n2)cc1`: the T/C is, setting by setting: (endpoint: mean survival time, dose: 1.25 mg/kg/injection, schedule: Q01DX009 (ip), vehicle: saline with Tween-80) 100 % of control; (endpoint: mean survival time, dose: 2.5 mg/kg/injection, schedule: Q01DX009 (ip), vehicle: saline with Tween-80) 100 % of control; (endpoint: mean survival time, dose: 5.0 mg/kg/injection, schedule: Q01DX009 (ip), vehicle: saline with Tween-80) 104 % of control; (endpoint: mean survival time, dose: 5.0 mg/kg/injection, schedule: Q04DX003 (ip), vehicle: saline) 95 % of control.

Take `Nc1ncnc2nc(C3COCCO3)[nH]c12` (centres undefined): the T/C (endpoint: mean survival time, dose: 12.5 mg/kg/injection, schedule: Q01DX005 (ip), vehicle: distilled water + Tween-80) is 90 % of control; the T/C (endpoint: mean survival time, dose: 25.0 mg/kg/injection, schedule: Q01DX005 (ip), vehicle: distilled water + Tween-80) is 94 % of control; the T/C (endpoint: mean survival time, dose: 50.0 mg/kg/injection, schedule: Q01DX005 (ip), vehicle: distilled water + Tween-80) is 94 % of control; the T/C (endpoint: mean survival time, dose: 100.0 mg/kg/injection, schedule: Q01DX005 (ip), vehicle: distilled water + Tween-80) is 96 % of control; the T/C (endpoint: mean survival time, dose: 200.0 mg/kg/injection, schedule: Q01DX005 (ip), vehicle: distilled water + Tween-80) is 104 % of control.

Turning to `CC(=O)Nc1ncc(CN2CCCCC2)s1`, the T/C is, setting by setting: (endpoint: mean survival time, dose: 100.0 mg/kg/injection, schedule: Q04DX002 (ip), vehicle: Klucel (hydroxypropylcellulose) (HPC)) 100 % of control; (endpoint: mean survival time, dose: 200.0 mg/kg/injection, schedule: Q04DX002 (ip), vehicle: Klucel (hydroxypropylcellulose) (HPC)) 103 % of control.

For the molecule `c1ccc(CCCNc2nnnc3ccccc23)cc1`, the T/C runs as follows: (endpoint: mean survival time, dose: 100.0 mg/kg/injection, schedule: Q04DX002 (ip), vehicle: saline with Tween-80) 95 % of control; (endpoint: mean survival time, dose: 200.0 mg/kg/injection, schedule: Q04DX002 (ip), vehicle: saline with Tween-80) 103 % of control; (endpoint: mean survival time, dose: 400.0 mg/kg/injection, schedule: Q04DX002 (ip), vehicle: saline with Tween-80) 91 % of control.

For the molecule `Nc1ncnc2c1ncn2CC(N)C(=O)O` (centres undefined), the T/C by setting is: (endpoint: mean survival time, dose: 100.0 mg/kg/injection, schedule: Q01DX001 (ip), vehicle: saline) 103 % of control; (endpoint: mean survival time, dose: 200.0 mg/kg/injection, schedule: Q01DX001 (ip), vehicle: saline) 107 % of control; (endpoint: mean survival time, dose: 400.0 mg/kg/injection, schedule: Q01DX001 (ip), vehicle: saline) 105 % of control.

`Cc1ccc(S(=O)(=O)N(O)S(=O)(=O)c2ccc(C)cc2)cc1`: the T/C under setting [1] is 101 % of control; the T/C (endpoint: mean survival time, dose: 100.0 mg/kg/injection, schedule: Q01DX009 (ip), vehicle: saline with Tween-80) was 94 % of control; the T/C under setting [5] is 94 % of control; the T/C (endpoint: mean survival time, dose: 200.0 mg/kg/injection, schedule: Q01DX009 (ip), vehicle: saline with Tween-80) was 92 % of control; the T/C under setting [2] is 100 % of control; the T/C (endpoint: mean survival time, dose: 400.0 mg/kg/injection, schedule: Q01DX009 (ip), vehicle: saline with Tween-80) was 94 % of control.

Turning to `CC1CCC(NC(=O)NCCF)CC1` (centres undefined), the T/C is, setting by setting: (endpoint: mean survival time, dose: 75.0 mg/kg/injection, schedule: Q01DX001 (ip), vehicle: other) 100 % of control; (endpoint: mean survival time, dose: 150.0 mg/kg/injection, schedule: Q01DX001 (ip), vehicle: other) 115 % of control.

As to `C/C(=N\N(C)C)C(C)(C)C`, the T/C runs as follows: (endpoint: mean survival time, dose: 75.0 mg/kg/injection, schedule: Q01DX001 (ip), vehicle: saline) 93 % of control; (endpoint: mean survival time, dose: 150.0 mg/kg/injection, schedule: Q01DX001 (ip), vehicle: saline) 100 % of control; (endpoint: mean survival time, dose: 300.0 mg/kg/injection, schedule: Q01DX001 (ip), vehicle: saline) 108 % of control.

Turning to `[CH3][Sn]1([CH3])[O]C2C(CO)OC(n3ccc4c(N)ncnc43)C2[O]1` (centres undefined), the T/C runs as follows: (endpoint: mean survival time, dose: 0.78 mg/kg/injection, schedule: Q01DX005 (ip), vehicle: other) 111 % of control; (endpoint: mean survival time, dose: 1.56 mg/kg/injection, schedule: Q01DX005 (ip), vehicle: other) 107 % of control; (endpoint: mean survival time, dose: 3.13 mg/kg/injection, schedule: Q01DX005 (ip), vehicle: other) 115 % of control.

On to `Cc1c(Cl)c(Cl)c(Cl)c(-c2c(Cl)c(C)c(Cl)c(Cl)c2Cl)c1Cl`, for which the T/C is 102 % of control under setting [3]; 96 % of control under setting [4]; 98 % of control (endpoint: mean survival time, dose: 400.0 mg/kg/injection, schedule: Q04DX003 (ip), vehicle: saline).

In the case of `CCc1ccc(C2=C(O)C(=O)C(c3ccccc3)=C(O)C2=O)cc1`, the T/C is 97 % of control (endpoint: mean survival time, dose: 3.12 mg/kg/injection, schedule: Q01DX009 (ip), vehicle: Klucel (hydroxypropylcellulose) (HPC)); 100 % of control (endpoint: mean survival time, dose: 6.25 mg/kg/injection, schedule: Q01DX009 (ip), vehicle: Klucel (hydroxypropylcellulose) (HPC)); 100 % of control (endpoint: mean survival time, dose: 12.5 mg/kg/injection, schedule: Q01DX009 (ip), vehicle: Klucel (hydroxypropylcellulose) (HPC)); 97 % of control (endpoint: mean survival time, dose: 25.0 mg/kg/injection, schedule: Q01DX009 (ip), vehicle: Klucel (hydroxypropylcellulose) (HPC)); 100 % of control (endpoint: mean survival time, dose: 50.0 mg/kg/injection, schedule: Q01DX009 (ip), vehicle: Klucel (hydroxypropylcellulose) (HPC)); 95 % of control (endpoint: mean survival time, dose: 100.0 mg/kg/injection, schedule: Q01DX009 (ip), vehicle: Klucel (hydroxypropylcellulose) (HPC)).
